This assay concerns the target T1, wild-type HIV-1 protease (Human immunodeficiency virus type 1 group M subtype B, UniProt P04585).
T1 construct: Escherichia coli expressed wild-type HIV-1 protease protein
The assay is described as follows: Assay for Inhibition of Microbial Expressed HIV Protease (peptide substrate cleavage, LC-MS/MS readout). The format is biochemical. To be noted: E. coli expressed wild-type HIV-1 protease, mean of at least two independent experiments, read-out: HIV Pr Enzyme HIV1 PR IC50. The procedure:
Assay for Inhibition of Microbial Expressed HIV Protease
Inhibition of Escherichia coli expressed wild-type HIV-1 protease protein was carried out with a peptide substrate [Val-Ser-Gln-Asn-(βnaphtyl)Ala-Pro-Ile-Val]. The inhibitor compound was preincubated with HIV-1 protease enzyme in assay buffer (50 mM sodium acetate, pH 5.5, 100 mM NaCl, and 0.1% BSA) for 30 minutes at room temperature. Peptide substrate was added to 400 μM in a total volume of 20 μL containing […] HIV-1 protease (final) after which the reaction was incubated for 1 hour at 30° C. […] The extent of inhibition of the reaction was determined from the peak area of the products.
Data shown in the table reflects the mean of at least two independent experiments.

With `N=C1N[C@@](c2ccc(F)cc2)(C2CCOCC2)C(=O)N1C1CCCc2ccc(C(=O)N3Cc4nccnc4C3)cc21` (stereo in doubt) [Compound 130, (5R)-3-[(1R)-7-(5,7-dihydro-6H-pyrrolo[3,4-b]pyrazin-6-ylcarbonyl)-1,2,3,4-tetrahydronaphthalen-1-yl]-5-(4-fluorophenyl)-2-imino-5-(tetrahydro-2H-pyran-4-yl)imidazolidin-4-one], the IC50 (usually the concentration that inhibits the measured activity by half) turned out to be 80.5 nM.

As to `CC(C)CC[C@]1(c2ccc(F)cc2)NC(=N)N(C(CCCc2ccccc2)c2ccc(C(F)(F)F)c(C(=O)N3Cc4nccnc4C3)c2)C1=O` (stereo partly drawn) [Compound 2, (5R)-3-{1-[3-(5,7-dihydro-6H-pyrrolo[3,4-b]pyrazin-6-ylcarbonyl)-4-(trifluoro-methyl)phenyl]-4-phenylbutyl}-5-(4-fluorophenyl)-2-imino-5-(3-methylbutyl)imidazolidin-4-one], the concentration for half-maximal inhibition (IC50) is 0.14 nM.

As to `N=C1N[C@](CCC2CC2)(c2ccc(F)cc2)C(=O)N1C(CCc1ccccc1)c1ccc(C(F)(F)F)c(C(=O)N2Cc3nccnc3C2)c1` (stereo partly drawn) [Compound 3, (5R)-5-(2-cyclopropylethyl)-3-{1-[3-(5,7-dihydro-6H-pyrrolo[3,4-b]pyrazin-6-ylcarbonyl)-4-(trifluoromethyl)phenyl]-3-phenylpropyl}-5-(4-fluorophenyl)-2-iminoimidazolidin-4-one], the IC50 was 0.17 nM.

As for `CC(C)CC[C@]1(c2ccc(F)cc2)NC(=N)N(C(Cc2ccccc2)c2ccc(C(F)(F)F)c(C(=O)N3Cc4nccnc4C3)c2)C1=O` (stereo partly drawn) [Compound 4, (5R)-3-{1-[3-(5,7-dihydro-6H-pyrrolo[3,4-b]pyrazin-6-ylcarbonyl)-4-(trifluoromethyl)-phenyl]-2-phenylethyl}-5-(4-fluorophenyl)-2-imino-5-(3-methylbutyl)-imidazolidin-4-one], the IC50 worked out at 0.2 nM.

Regarding `CC(C)CC[C@]1(c2ccccc2)NC(=N)N(C(CC(C)C)c2ccc(C(F)(F)F)c(C(=O)N3Cc4nccnc4C3)c2)C1=O` (stereo partly drawn) [Compound 5, (5R)-3-{1-[3-(5,7-dihydro-6H-pyrrolo[3,4-b]pyrazin-6-ylcarbonyl)-4-(trifluoromethyl)-phenyl]-3-methylbutyl}-2-imino-5-(3-methylbutyl)-5-phenylimidazo-lidin-4-one], the IC50 worked out at 0.26 nM.

For the compound `CC(C)CC[C@]1(c2ccc(F)cc2)NC(=N)N(C(Cc2ccccc2)c2ccc(C(F)(F)F)c(C(=O)N3Cc4nccnc4C3)c2)C1=O` (stereo partly drawn) [Compound 6, (5R)-3-{1-[3-(5,7-dihydro-6H-pyrrolo[3,4-b]pyrazin-6-ylcarbonyl)-4-(trifluoromethyl)-phenyl]-2-phenylethyl}-5-(4-fluorophenyl)-2-imino-5-(3-methylbutyl)imidazolidin-4-one], the half-maximal inhibitory concentration (IC50) was 0.26 nM.

`N=C1N[C@](CCC2CC2)(c2ccc(F)cc2)C(=O)N1C(CN1CCCC1=O)c1ccc(C(F)(F)F)c(C(=O)N2Cc3nccnc3C2)c1` (stereo partly drawn) [Compound 7, (5R)-5-(2-cyclopropylethyl)-3-{1-[3-(5,7-dihydro-6H-pyrrolo[3,4-b]pyrazin-6-ylcarbonyl)-4-(trifluoromethyl)phenyl]-2-(2-oxopyrrolidin-1-yl)ethyl}-5-(4-fluorophenyl)-2-iminoimidazolidin-4-one]: the IC50 came out at 0.39 nM.

For the compound `CC(C)CC[C@]1(c2ccc(F)cc2)NC(=N)N(C(COC(C)C)c2ccc(C(F)(F)F)c(C(=O)N3Cc4nccnc4C3)c2)C1=O` (stereo partly drawn) [Compound 8, (5R)-3-{1-[3-(5,7-dihydro-6H-pyrrolo[3,4-b]pyrazin-6-ylcarbonyl)-4-(trifluoromethyl)phenyl]-2-(1-methylethoxy)ethyl}-5-(4-fluorophenyl)-2-imino-5-(3-methylbutyl)imidazolidin-4-one], the IC50 is 0.52 nM.

For `CC(C)CCC(c1ccc(C(F)(F)F)c(C(=O)N2Cc3nccnc3C2)c1)N1C(=N)N[C@](CCC(C)C)(c2ccccc2)C1=O` (stereo partly drawn) [Compound 9, (5R)-3-{1-[3-(5,7-dihydro-6H-pyrrolo[3,4-b]pyrazin-6-ylcarbonyl)-4-(trifluoromethyl)phenyl]-4-methylpentyl}-2-imino-5-(3-methylbutyl)-5-phenylimidazolidin-4-one], the IC50 was determined as 0.6 nM.

For `N=C1N[C@](CCCC(F)(F)F)(c2ccc(F)cc2)C(=O)N1Cc1ccc(C(F)(F)F)c(C(=O)N2Cc3cnc(-c4cnn(CCO)c4)nc3C2)c1` [Compound 12, (5R)-5-(4-fluorophenyl)-3-[3-({2-[1-(2-hydroxyethyl)-1H-pyrazol-4-yl]-5,7-dihydro-6H-pyrrolo[3,4-d]pyrimidin-6-yl}carbonyl)-4-(trifluoromethyl)benzyl]-2-imino-5-(4,4,4-trifluorobutyl)imidazolidin-4-one], the IC50 was 1.32 nM.

For the compound `CC(C)CC(c1ccc(C(F)(F)F)c(C(=O)N2Cc3nccnc3C2)c1)N1C(=N)N[C@](CC2CCOCC2)(c2ccc(F)cc2)C1=O` (stereo partly drawn) [Compound 14, (5R)-3-{1-[3-(5,7-dihydro-6H-pyrrolo[3,4-b]pyrazin-6-ylcarbonyl)-4-(trifluoromethyl)phenyl]-3-methylbutyl}-5-(4-fluorophenyl)-2-imino-5-(tetrahydro-2H-pyran-4-ylmethyl)imidazolidin-4-one], the IC50 was 1.77 nM.

For the compound `Cn1cc(-c2ncc3c(n2)CN(C(=O)c2cc(CN4C(=N)N[C@](CCCC(F)(F)F)(c5ccc(F)cc5)C4=O)ccc2C(F)(F)F)C3)cn1` [Compound 15, (5R)-5-(4-fluorophenyl)-2-imino-3-[3-{[2-(1-methyl-1H-pyrazol-4-yl)-5,7-dihydro-6H-pyrrolo[3,4-d]pyrimidin-6-yl]carbonyl}-4-(trifluoromethyl)benzyl]-5-(4,4,4-trifluorobutyl)imidazolidin-4-one], the IC50 amounted to 1.95 nM.

`CN(C)c1ccc(-c2ncc3c(n2)CN(C(=O)c2cc(CN4C(=N)N[C@](CCCC(F)(F)F)(c5ccc(F)cc5)C4=O)ccc2C(F)(F)F)C3)cn1` [Compound 16, (5R)-3-[3-({2-[6-(dimethylamino)pyridin-3-yl]-5,7-dihydro-6H-pyrrolo[3,4-d]pyrimidin-6-yl}carbonyl)-4-(trifluoromethyl)benzyl]-5-(4-fluorophenyl)-2-imino-5-(4,4,4-trifluorobutyl)imidazolidin-4-one]: the IC50 is 1.98 nM.

Take `CS(=O)(=O)CCn1cc(-c2ncc3c(n2)CN(C(=O)c2cc(CN4C(=N)N[C@](CCCC(F)(F)F)(c5ccc(F)cc5)C4=O)ccc2C(F)(F)F)C3)cn1` [Compound 17, (5R)-5-(4-fluorophenyl)-2-imino-3-{3-[(2-{1-[2-(methylsulfonyl)ethyl]-1H-pyrazol-4-yl}-5,7-dihydro-6H-pyrrolo[3,4-d]pyrimidin-6-yl)carbonyl]-4-(trifluoromethyl)-benzyl}-5-(4,4,4-trifluorobutyl)-imidazolidin-4-one]: the IC50 turned out to be 1.99 nM.

Regarding `CCCn1cc(-c2ncc3c(n2)CN(C(=O)c2cc(CN4C(=N)N[C@](CCCC(F)(F)F)(c5ccc(F)cc5)C4=O)ccc2C(F)(F)F)C3)cn1` [Compound 18, (5R)-5-(4-fluorophenyl)-2-imino-3-[3-{[2-(1-propyl-1H-pyrazol-4-yl)-5,7-dihydro-6H-pyrrolo[3,4-d]pyrimidin-6-yl]carbonyl}-4-(trifluoromethyl)benzyl]-5-(4,4,4-trifluorobutyl)imidazolidin-4-one], the concentration for half-maximal inhibition (IC50) came out at 2 nM.

Values taken from patent publication US20200069691A1, “HETEROCYCLIC COMPOUNDS AS HIV PROTEASE INHIBITORS” (Merck Sharp & Dohme Corp., priority 2016, published 2020).
